Converted amounts (≈) assume the structure as drawn.
Columns and labels:
[1] = system: Bacillus anthracis No. 119; assay: microbe, parasite or virus in culture; assay type: cell-based; conditions: NO.119, read-out: Minimum Inhibitory Concn.
[2] = system: Citrobacter freundii GN 346; assay: Antimicrobial activity, serial dilution method on agar plate; assay type: cell-based; conditions: GN346, read-out: Minimum Inhibitory Concn.
Description: (§1) The antimicrobial activity of SF2582 A and B on various test microorganisms shown in Table 2 below were determined by the serial dilution method on agar plate, and the minimum inhibitory concentrations (µg/ml) obtained are shown in Table 2 below.

[3] = system: Enterococcus faecalis ATCC 8043; assay: as above; assay type: cell-based; conditions: ATCC8043, read-out: Minimum Inhibitory Concn.
Description: as §1

Escherichia coli JC-2 = assay: as above; assay type: cell-based; conditions: JC2, read-out: Minimum Inhibitory Concn.
Description: as §1

[4] = system: Escherichia coli JR 661 W/677; assay: as above; assay type: cell-based; conditions: JR661W/677, read-out: Minimum Inhibitory Concn.
Description: as §1

Escherichia coli No. 29 = assay: as above; assay type: cell-based; conditions: read-out: Minimum Inhibitory Concn.
Description: as §1

[5] = system: Escherichia coli W 3630 RGN 823; assay: as above; assay type: cell-based; conditions: W3630RGN823, read-out: Minimum Inhibitory Concn.
Description: as §1

[6] = system: Klebsiella pneumoniae 22 #3038; assay: as above; assay type: cell-based; conditions: read-out: Minimum Inhibitory Concn.
Description: as §1

[7] = system: Klebsiella pneumoniae PCI 602; assay: as above; assay type: cell-based; conditions: PCI602, read-out: Minimum Inhibitory Concn.
Description: as §1

[8] = system: Manthomonas maltophilia M-0627; assay: as above; assay type: cell-based; conditions: read-out: Minimum Inhibitory Concn.
Description: as §1

Morganella morganii Kono = assay: as above; assay type: cell-based; conditions: read-out: Minimum Inhibitory Concn.
Description: as §1

Proteus mirabilis GN 310 = assay: as above; assay type: cell-based; conditions: GN310, read-out: Minimum Inhibitory Concn.
Description: as §1

Proteus vulgaris OX 19 = assay: as above; assay type: cell-based; conditions: OX19, read-out: Minimum Inhibitory Concn.
Description: as §1

[9] = system: Providencia rettgeri J-0026; assay: as above; assay type: cell-based; conditions: J0026, read-out: Minimum Inhibitory Concn.
Description: as §1

[10] = system: Pseudomonas aeruginosa MB-3829; assay: as above; assay type: cell-based; conditions: MB3829, read-out: Minimum Inhibitory Concn.
Description: as §1

[11] = system: Salmonella enteritidis No. 11; assay: as above; assay type: cell-based; conditions: Salmonella enterica, read-out: Minimum Inhibitory Concn.
Description: as §1

Salmonella sp. D-0001 = assay: as above; assay type: cell-based; conditions: SP.D0001, read-out: Minimum Inhibitory Concn.
Description: as §1

Salmonella typhi O-901-W = assay: as above; assay type: cell-based; conditions: Salmonella enterica, read-out: Minimum Inhibitory Concn.
Description: as §1

[12] = system: Salmonella typhimurium LT-2; assay: as above; assay type: cell-based; conditions: Salmonella enterica, read-out: Minimum Inhibitory Concn.
Description: as §1

[13] = system: Serratia marcescens MB-3848; assay: as above; assay type: cell-based; conditions: MB3848, read-out: Minimum Inhibitory Concn.
Description: as §1

[14] = system: Shigella sonnei EW 33 Type 1; assay: as above; assay type: cell-based; conditions: EW33TYPE1, read-out: Minimum Inhibitory Concn.
Description: as §1

[15] = system: Staphylococcus aureus 209P JC-1; assay: as above; assay type: cell-based; conditions: read-out: Minimum Inhibitory Concn.
Description: as §1

[16] = system: Staphylococcus aureus No. 26; assay: as above; assay type: cell-based; conditions: read-out: Minimum Inhibitory Concn.
Description: as §1

[17] = system: Staphylococcus aureus Smith S-424; assay: as above; assay type: cell-based; conditions: SMITHS424, read-out: Minimum Inhibitory Concn.
Description: as §1

[18] = system: Staphylococcus epidermidis 109; assay: as above; assay type: cell-based; conditions: read-out: Minimum Inhibitory Concn.
Description: as §1

[19] = system: Staphylococcus epidermidis ATCC 14990; assay: as above; assay type: cell-based; conditions: ATCC14990, read-out: Minimum Inhibitory Concn.
Description: as §1

P-388 tumor cells = assay: Antitumor activity in mice intraperitoneally implanted with P-388 tumor cells; assay type: in vivo; conditions: P-388 mice
[20] = qualitative, in the named solvents
in vivo = conditions: mouse, ip
P-388 = assay: Cytotoxicity on tumor cells; assay type: cell-based; conditions: P388; P-388, mouse leukemia; 37°C, 72 hours, 5% CO₂; probit method; read-out: IC₅₀
L-1210 = assay: Cytotoxicity on tumor cells; assay type: cell-based; conditions: L1210; L-1210, mouse leukemia; 37°C, 72 hours, 5% CO₂; probit method; read-out: IC₅₀
Meth-A = assay: Cytotoxicity on tumor cells; assay type: cell-based; conditions: mouse fibrosarcoma, 37°C, 72 hours, 5% CO₂, probit method, read-out: IC₅₀
B16 = assay: Cytotoxicity on tumor cells; assay type: cell-based; conditions: B16, mouse melanoma; 37°C, 72 hours, 5% CO₂; probit method; read-out: IC₅₀
K562 = assay: Cytotoxicity on tumor cells; assay type: cell-based; conditions: K562, human leukaemia; 37°C, 72 hours, 5% CO₂; probit method; read-out: IC₅₀
PC10 = assay: Cytotoxicity on tumor cells; assay type: cell-based; conditions: PC10, human lung cancer; 37°C, 72 hours, 5% CO₂; probit method; read-out: IC₅₀
PC13 = assay: Cytotoxicity on tumor cells; assay type: cell-based; conditions: PC-13; PC13, human lung cancer; 37°C, 72 hours, 5% CO₂; probit method; read-out: IC₅₀
PC14 = assay: Cytotoxicity on tumor cells; assay type: cell-based; conditions: PC-14; PC14, human lung cancer; 37°C, 72 hours, 5% CO₂; probit method; read-out: IC₅₀
HMV-1 = assay: Cytotoxicity on tumor cells; assay type: cell-based; conditions: HMV-1, human melanoma; 37°C, 72 hours, 5% CO₂; probit method; read-out: IC₅₀
KB = assay: Cytotoxicity on tumor cells; assay type: cell-based; conditions: human nasopharynx, 37°C, 72 hours, 5% CO₂, probit method, read-out: IC₅₀
HL-60 = assay: Cytotoxicity on tumor cells; assay type: cell-based; conditions: HL-60, human leukemia; 37°C, 72 hours, 5% CO₂; probit method; read-out: IC₅₀
[21] = mice, dose of 200 mg/kg (i.p.)

| Structure (SMILES) | MIC [1] [µg/mL] | MIC [2] [µg/mL] | MIC [3] [µg/mL] | MIC (Escherichia coli JC-2) [µg/mL] | MIC [4] [µg/mL] | MIC (Escherichia coli No. 29) [µg/mL] | MIC [5] [µg/mL] | MIC [6] [µg/mL] | MIC [7] [µg/mL] | MIC [8] [µg/mL] | MIC (Morganella morganii Kono) [µg/mL] | MIC (Proteus mirabilis GN 310) [µg/mL] | MIC (Proteus vulgaris OX 19) [µg/mL] | MIC [9] [µg/mL] | MIC [10] [µg/mL] | MIC [11] [µg/mL] | MIC (Salmonella sp. D-0001) [µg/mL] | MIC (Salmonella typhi O-901-W) [µg/mL] | MIC [12] [µg/mL] | MIC [13] [µg/mL] | also measured |
| --- | --- | --- | --- | --- | --- | --- | --- | --- | --- | --- | --- | --- | --- | --- | --- | --- | --- | --- | --- | --- | --- |
| COC(=O)C1(C)Nc2c(O)cc3c(c2C1=O)C(CCl)CN3C(=O)c1cc2cc(OC)c(OC)c(OC)c2[nH]1 (stereo not shown) [SF2582 A] | 0.05 (≈ 0.0919 µM) | 3.13 (≈ 5.75 µM) | 0.05 (≈ 0.0919 µM) | 12.5 (≈ 23 µM) | 12.5 (≈ 23 µM) | 6.25 (≈ 11.5 µM) | 6.25 (≈ 11.5 µM) | 25 (≈ 46 µM) | 25 (≈ 46 µM) | 100 (≈ 184 µM) | 50 (≈ 91.9 µM) | 25 (≈ 46 µM) | > 100 | 25 (≈ 46 µM) | 25 (≈ 46 µM) | 0.78 (≈ 1.43 µM) | 12.5 (≈ 23 µM) | 3.13 (≈ 5.75 µM) | 12.5 (≈ 23 µM) | 25 (≈ 46 µM) | MIC [14]: 3.13 µg/mL (≈ 5.75 µM); MIC [15]: < 0.025 µg/mL; MIC [16]: < 0.025 µg/mL; MIC [17]: < 0.025 µg/mL; MIC [18]: < 0.025 µg/mL; MIC [19]: 0.05 µg/mL (≈ 0.0919 µM); T/C (effect of improving incidence of survival) (P-388 tumor cells; dose 0.033 mg/kg intraperitoneally, once a day for consecutive 2 days): 114%; T/C (effect of improving incidence of survival) (P-388 tumor cells; dose 0.13 mg/kg intraperitoneally, once a day for consecutive 2 days): 148%; T/C (effect of improving incidence of survival) (P-388 tumor cells; dose 0.54 mg/kg intraperitoneally, once a day for consecutive 2 days): 128%; T/C (effect of improving incidence of survival) (P-388 tumor cells; dose 2.14 mg/kg intraperitoneally, once a day for consecutive 2 days): 80%; Solubility [20]: soluble in methanol, ethyl acetate, acetone, chloroform, or dimethyl sufoxide; insoluble in water or haxane; LD50 at 336 h (in vivo): 0.25 to 1 mg/kg |
| COC(=O)C1(C)Nc2c(O)cc3c(c2C1=O)C(CO)CN3C(=O)c1cc2cc(OC)c(OC)c(OC)c2[nH]1 (stereo not shown) | – | – | – | – | – | – | – | – | – | – | – | – | – | – | – | – | – | – | – | – | IC50 (P-388): 9.4 µg/mL (≈ 17.9 µM); IC50 (L-1210): 1.3 µg/mL (≈ 2.47 µM); IC50 (Meth-A): 42 µg/mL (≈ 79.9 µM); IC50 (B16): 5.1 µg/mL (≈ 9.7 µM); IC50 (K562): 35.6 µg/mL (≈ 67.7 µM); IC50 (PC10): 14.1 µg/mL (≈ 26.8 µM); IC50 (PC13): 39.5 µg/mL (≈ 75.2 µM); IC50 (PC14): > 50 µg/mL; IC50 (HMV-1): 12.1 µg/mL (≈ 23 µM); IC50 (KB): 18 µg/mL (≈ 34.3 µM); IC50 (HL-60): 31.5 µg/mL (≈ 59.9 µM); death in acute toxicity test [21]: no case of death |
| COC(=O)C1(C)Nc2c(O)cc3c(c2C1=O)CC(Cl)CN3C(=O)c1cc2cc(OC)c(OC)c(OC)c2[nH]1 (stereo not shown) [SF2582 B] | 0.05 (≈ 0.0919 µM) | 6.25 (≈ 11.5 µM) | 0.1 (≈ 0.184 µM) | 25 (≈ 46 µM) | 25 (≈ 46 µM) | 12.5 (≈ 23 µM) | 12.5 (≈ 23 µM) | > 100 | 50 (≈ 91.9 µM) | 100 (≈ 184 µM) | 50 (≈ 91.9 µM) | 25 (≈ 46 µM) | 50 (≈ 91.9 µM) | 25 (≈ 46 µM) | 50 (≈ 91.9 µM) | 1.56 (≈ 2.87 µM) | 25 (≈ 46 µM) | 3.13 (≈ 5.75 µM) | 25 (≈ 46 µM) | 25 (≈ 46 µM) | MIC [14]: 6.25 µg/mL (≈ 11.5 µM); MIC [15]: 0.05 µg/mL (≈ 0.0919 µM); MIC [16]: < 0.025 µg/mL; MIC [17]: < 0.025 µg/mL; MIC [18]: 0.05 µg/mL (≈ 0.0919 µM); MIC [19]: 0.05 µg/mL (≈ 0.0919 µM); T/C (effect of improving incidence of survival) (P-388 tumor cells; dose 0.16 mg/kg intraperitoneally, only once): 117%; T/C (effect of improving incidence of survival) (P-388 tumor cells; dose 0.63 mg/kg intraperitoneally, only once): 159%; T/C (effect of improving incidence of survival) (P-388 tumor cells; dose 2.5 mg/kg intraperitoneally, only once): 159%; T/C (effect of improving incidence of survival) (P-388 tumor cells; dose 10.0 mg/kg intraperitoneally, only once): 80%; Solubility [20]: soluble in methanol, ethyl acetate, acetone, chloroform, or dimethyl sufoxide; insoluble in water or haxane; LD50 at 336 h (in vivo): 1 to 2 mg/kg |

Reference: EP0318056A2, “Novel antibiotics and process for preparing the same” (MEIJI SEIKA KAISHA LTD., priority 1987, dated 1989)
